{"source": "patent US9187411B2", "about": "“Leukotriene B4 antagonist compound” (Eli Lilly and Company, priority 2012, dated 2015)", "system": "CaCl2-induced abdominal aortic aneurysm", "experiment": "CaCl2-induced AAA animal efficacy model, mice", "type": "in vivo, 129SvEv mice", "settings": "28 days, aortic lumenal perimeter", "text": "A targeted application of a calcium chloride solution to the mouse aorta induces vessel dilatation Chiou et al. J. Surg. Res. (2001), 99: 371-376; Lomgo et al. J. Clin. Invest. (2002), 110: 625-632. Two weeks after treatment, the vessel dilatation compared to the original vessel diameter becomes statistically significant, with up to 75% increase of aortic lumenal perimeter after 4 weeks. Calcium precipitates have been localized primarily within the elastic network of the media. Disruption of this structure by the calcium-elastic tissue complex weakens the vessel wall, contributing to aneurysm formation. This injury also serves as a proinflammatory stimulus, recruiting neutrophils, lymphocytes, monocytes, and mast cells.\nMice: 129SvEv males, 7 weeks of age, are acquired from Taconic Farms, Germantown, N.Y., USA.\nAneurysm Induction Model: All procedures are performed in accordance with Eli Lilly and Company Institutional Animal Care and Use guidelines. Upon their arrival, animals have a one week acclimation period during which they have ad libitum access to standard rodent chow (Purina #2014) and house water. Following the acclimation period, animals are anesthetized with isoflurane, and a laparotomy is performed for the CaCl2-stimulated induction of the abdominal aortic aneurysm (AAA). […] Interior cross sectional lumenal perimeter measurements (mm) are collected at that point to assess efficacy and statistically analyzed with JMP® 7 software (Cary, N.C.). Statistical Analysis: Measurements of lumenal perimeter are expressed as mean values±SE. […]\nThe efficacy signal window in the CaCl2-induced abdominal aortic aneurysm model is determined by the lumenal perimeter of the aorta in mice treated with saline-soaked gauze followed by 4-weeks dosing with vehicle that determines 100% efficacy (“Sham Vehicle”) and the lumenal perimeter of the aorta in mice treated with CaCl2-soaked gauze followed by 4-weeks dosing with vehicle (“Vehicle”) that determines 0% efficacy."}
{"smiles": "CCCc1c(NC(=O)CC(C)(C)C(=O)[O-])cccc1OCCCOc1cc(O)c(-c2ccc(F)cc2)cc1CC.[Na+]", "note": "[Example 2, Sodium 4-[[3-[3-[2-ethyl-4-(4-fluorophenyl)-5-hydroxy-phenoxy]propoxy]-2-propyl-phenyl]amino]-2,2-dimethyl-4-oxo-butanoate]", "values": [{"measurement": "% Reduced (±S.E.) of AAA", "setting": "10 mg/kg b.i.d. oral gavage", "result": "41% ± 13"}, {"measurement": "% Reduced (±S.E.) of AAA", "setting": "30 mg/kg b.i.d. oral gavage", "result": "48% ± 10"}, {"measurement": "% Reduced (±S.E.) of AAA", "setting": "60 mg/kg b.i.d. oral gavage", "result": "58% ± 13"}]}
